{"source": "patent US20230372221A1", "about": "“USE OF THIOPYRIDINONE COMPOUNDS FOR PREVENTING THE FORMATION OF CUTANEOUS BLACKHEADS” (L'OREAL, priority 2020, published 2023)", "test_system": "oxidation of the L-DOPA under the action of the bacterial extract (intracellular extract of Cutibacterium acnes CIP 53.117)", "experiment": "In vitro evaluation of the ability to inhibit the development of the colour (absorbance at 475 nm of L-DOPA + Cutibacterium acnes extract)", "type": "biochemical", "settings": "for optical density at 475 nm: 32° C.; for % inhib (percentage of inhibition of the formation of the coloured product): from initial rate of oxidation between 10 and 40 minutes vs reference composition", "excerpt": "This method is based on the measurement of absorbance, over time, carried out directly on a composition formed of a mixture of intracellular extract of bacteria of Cutibacterium acnes type, of 3,4-dihydroxy-L-phenylalanine (L-DOPA) and of a test compound. The measurements are compared with those carried out for a mixture of an intracellular extract of bacteria of Cutibacterium acnes type and of 3,4-dihydroxy-L-phenylalanine (L-DOPA), in the absence of test compound (reference). The method is adapted from a method for the enzymatic assay of the tyrosinase activity (Behbahani et al., Microchemical Journal (1993), 47, 251), which is based on the absorbance properties at 475 nm of a coloured intermediate of the pathway for the biosynthesis of melanin starting from L-DOPA, namely dopachrome, a product of the oxidation of L-DOPA. An intracellular extract of bacteria of Cutibacterium acnes CIP 53.117 type stored at 4° C. in the lyophilized form is suspended in 1×PBS (supplied by Gibco BRL Life Technologies) at a concentration of 6 mg/ml. A solution of L-DOPA at a concentration of 0.5 mg/ml is prepared by bringing together L-DOPA (supplied by Sigma-Aldrich) and milliQ water, so as to have an L-DOPA concentration of 1 mg/ml, then diluting with 1×PBS (Dulbecco's Phosphate Buffered Saline, supplied by Gibco BRL Life Technologies). The mixture of 50 μl of these two solutions and of 100 μl of 1×PBS (Dulbecco's Phosphate Buffered Saline, supplied by Gibco BRL Life Technologies) results in a composition with a total volume of 200 μl containing L-DOPA (at a concentration of 125 μg/ml) and Cutibacterium acnes extract (at a concentration of 1.5 mg/ml). The test compositions and the reference composition are introduced separately into wells of a 96-well microplate suitable for reading in visible spectrophotometry, and placed at a temperature of 32° C. The formation of a coloured product is monitored over time by spectrophotometry. To do this, the absorbance, or optical density (O.D.), is measured at 475 nm from the time 0 to the time 2 hours by means of a Spectra Max M5e reader and the Spectra Max software (the time 0 corresponds to the introduction of the composition into the wells). The ability to inhibit the development of the colour of a given compound was assessed by comparing the absorbance measurements obtained for the test compositions with those obtained for the reference composition. More specifically, the inhibitory effect of the test compound was evaluated by comparing the initial rate of oxidation of the L-DOPA under the action of the bacterial extract at 475 nm for the test composition with that of the reference composition in order to obtain a corresponding percentage of inhibition. In practice, the initial rate (Vi) of the oxidation reaction is calculated from the linear part of the curve of the graph of the absorbance values. As this part lies between 10 and 40 minutes (see the graph in FIG. 1), the initial rate of the oxidation reaction is determined using the following relationship: [formula] The percentage of inhibition (% inhib) of a given compound with regard to the formation of the coloured product is subsequently obtained using the values of the initial rate of the oxidation reaction for the reference composition (Viref) and for the test composition ([…]) according to the following relationship: [formula] Within the meaning of the invention, a compound is regarded as having an inhibitory effect if the % inhib value is at least 15%.", "data": [{"smiles": "CCOC(=O)CNC(=O)c1ccc[nH]c1=S", "note": "[Compound 5, Ethyl N-[(2-thioxo-1,2-dihydropyridin-3-yl)carbonyl]glycinate]", "values": [{"measurement": "inhibiting the development of the colour (result in words)", "setting": "compared with Reference (absence of treatment)", "result": "very effective"}, {"measurement": "optical density at 475 nm", "setting": "test compound 12.5 μM, duration 0 minutes", "result": 0.0531}, {"measurement": "optical density at 475 nm", "setting": "test compound 12.5 μM, duration 10 minutes", "result": 0.0535}, {"measurement": "optical density at 475 nm", "setting": "test compound 12.5 μM, duration 20 minutes", "result": 0.0550}, {"measurement": "optical density at 475 nm", "setting": "test compound 12.5 μM, duration 30 minutes", "result": 0.0559}, {"measurement": "optical density at 475 nm", "setting": "test compound 12.5 μM, duration 40 minutes", "result": 0.0572}, {"measurement": "optical density at 475 nm", "setting": "test compound 12.5 μM, duration 60 minutes", "result": 0.0601}, {"measurement": "optical density at 475 nm", "setting": "test compound 12.5 μM, duration 80 minutes", "result": 0.0636}, {"measurement": "optical density at 475 nm", "setting": "test compound 12.5 μM, duration 100 minutes", "result": 0.0659}, {"measurement": "optical density at 475 nm", "setting": "test compound 12.5 μM, duration 120 minutes", "result": 0.0674}, {"measurement": "% inhib (percentage of inhibition of the formation of the coloured product)", "setting": "test compound 12.5 μM", "result": 57, "unit": "%"}, {"measurement": "optical density at 475 nm", "setting": "test compound 25 μM, duration 0 minutes", "result": 0.0559}, {"measurement": "optical density at 475 nm", "setting": "test compound 25 μM, duration 10 minutes", "result": 0.0567}, {"measurement": "optical density at 475 nm", "setting": "test compound 25 μM, duration 20 minutes", "result": 0.0572}, {"measurement": "optical density at 475 nm", "setting": "test compound 25 μM, duration 30 minutes", "result": 0.0575}, {"measurement": "optical density at 475 nm", "setting": "test compound 25 μM, duration 40 minutes", "result": 0.0578}, {"measurement": "optical density at 475 nm", "setting": "test compound 25 μM, duration 60 minutes", "result": 0.0588}, {"measurement": "optical density at 475 nm", "setting": "test compound 25 μM, duration 80 minutes", "result": 0.0602}, {"measurement": "optical density at 475 nm", "setting": "test compound 25 μM, duration 100 minutes", "result": 0.0627}, {"measurement": "optical density at 475 nm", "setting": "test compound 25 μM, duration 120 minutes", "result": 0.0651}, {"measurement": "% inhib (percentage of inhibition of the formation of the coloured product)", "setting": "test compound 25 μM", "result": 87, "unit": "%"}, {"measurement": "optical density at 475 nm", "setting": "test compound 50 μM, duration 0 minutes", "result": 0.0539}, {"measurement": "optical density at 475 nm", "setting": "test compound 50 μM, duration 10 minutes", "result": 0.0554}, {"measurement": "optical density at 475 nm", "setting": "test compound 50 μM, duration 20 minutes", "result": 0.0557}, {"measurement": "optical density at 475 nm", "setting": "test compound 50 μM, duration 30 minutes", "result": 0.0560}, {"measurement": "optical density at 475 nm", "setting": "test compound 50 μM, duration 40 minutes", "result": 0.0565}, {"measurement": "optical density at 475 nm", "setting": "test compound 50 μM, duration 60 minutes", "result": 0.0573}, {"measurement": "optical density at 475 nm", "setting": "test compound 50 μM, duration 80 minutes", "result": 0.0579}, {"measurement": "optical density at 475 nm", "setting": "test compound 50 μM, duration 100 minutes", "result": 0.0585}, {"measurement": "optical density at 475 nm", "setting": "test compound 50 μM, duration 120 minutes", "result": 0.0593}, {"measurement": "% inhib (percentage of inhibition of the formation of the coloured product)", "setting": "test compound 50 μM", "result": 87, "unit": "%"}, {"measurement": "optical density at 475 nm", "setting": "test compound 100 μM, duration 0 minutes", "result": 0.0532}, {"measurement": "optical density at 475 nm", "setting": "test compound 100 μM, duration 10 minutes", "result": 0.0534}, {"measurement": "optical density at 475 nm", "setting": "test compound 100 μM, duration 20 minutes", "result": 0.0548}, {"measurement": "optical density at 475 nm", "setting": "test compound 100 μM, duration 30 minutes", "result": 0.0550}, {"measurement": "optical density at 475 nm", "setting": "test compound 100 μM, duration 40 minutes", "result": 0.0550}, {"measurement": "optical density at 475 nm", "setting": "test compound 100 μM, duration 60 minutes", "result": 0.0555}, {"measurement": "optical density at 475 nm", "setting": "test compound 100 μM, duration 80 minutes", "result": 0.0557}, {"measurement": "optical density at 475 nm", "setting": "test compound 100 μM, duration 100 minutes", "result": 0.0561}, {"measurement": "optical density at 475 nm", "setting": "test compound 100 μM, duration 120 minutes", "result": 0.0563}, {"measurement": "% inhib (percentage of inhibition of the formation of the coloured product)", "setting": "test compound 100 μM", "result": 82, "unit": "%"}]}]}
